The values that follow come from patent US20160145257A1, “SUBSTITUTED XANTHINES AND METHODS OF USE THEREOF” (Hydra Biosciences, Inc., priority 2013, published 2016).

Structures can show the parent of a compound that is named as a salt.

In the assay the target is T1, hTRPC5 (Homo sapiens, UniProt Q9UL62).
T1 construct: expressed in transfected cells; host or cells: HEK293 TREx cells with inducible TRPC5 expression
T1 sequence (Q9UL62 1-973): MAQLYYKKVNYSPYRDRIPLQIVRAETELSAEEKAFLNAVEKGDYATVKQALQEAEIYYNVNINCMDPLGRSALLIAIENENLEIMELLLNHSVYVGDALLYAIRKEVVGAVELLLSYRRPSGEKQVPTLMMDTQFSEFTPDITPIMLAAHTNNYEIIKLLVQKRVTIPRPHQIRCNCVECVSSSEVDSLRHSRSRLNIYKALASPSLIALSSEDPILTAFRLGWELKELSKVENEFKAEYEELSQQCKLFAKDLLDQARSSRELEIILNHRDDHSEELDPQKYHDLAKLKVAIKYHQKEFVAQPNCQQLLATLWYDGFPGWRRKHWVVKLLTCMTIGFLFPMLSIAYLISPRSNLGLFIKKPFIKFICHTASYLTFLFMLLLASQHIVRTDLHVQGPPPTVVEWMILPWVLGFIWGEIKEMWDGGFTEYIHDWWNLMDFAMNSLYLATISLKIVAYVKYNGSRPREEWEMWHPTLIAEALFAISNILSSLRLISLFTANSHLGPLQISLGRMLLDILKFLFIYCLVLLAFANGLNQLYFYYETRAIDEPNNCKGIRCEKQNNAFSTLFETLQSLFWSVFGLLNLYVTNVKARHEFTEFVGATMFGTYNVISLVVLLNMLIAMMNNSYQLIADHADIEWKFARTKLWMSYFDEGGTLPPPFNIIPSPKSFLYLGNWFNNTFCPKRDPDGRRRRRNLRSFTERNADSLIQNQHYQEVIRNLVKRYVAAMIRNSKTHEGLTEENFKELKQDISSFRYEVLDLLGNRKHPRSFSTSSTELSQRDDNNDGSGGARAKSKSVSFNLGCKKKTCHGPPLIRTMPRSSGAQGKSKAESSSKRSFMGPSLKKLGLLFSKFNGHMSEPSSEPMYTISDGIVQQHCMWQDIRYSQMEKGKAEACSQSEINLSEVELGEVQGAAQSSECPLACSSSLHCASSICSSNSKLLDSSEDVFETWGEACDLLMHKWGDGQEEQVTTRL
The assay is described as follows: Whole-cell patch clamp, block of LaCl3-activated TRPC5 inward current. Format: cell-based. The settings on record: TRPC5-expressing HEK293 TREx cells, 80 μM LaCl3, inward current, IC50 estimated from 5 μM and 500 nM, read-out: hTRPC5 Patch La3+ Inwd (nM) (All Batches). As for the experimental part: In certain embodiments, exemplary compounds of Formula I and Formula II include the compounds described in Table 1 and in the Examples. A compound described herein may be tested for its ability to block both inward and outward currents through the TRPC5 channel, e.g., by an assay as described in Example 1. For example, IC50 of a compound of Formula I or Formula II was estimated by testing the compound at 5 μM and 500 nM. […] IC50 for a compound of Formula I or Formula II between 500 nM and 5 μM was similarly estimated. As shown, “A” refers to an IC50<100 nM. “B” refers to an IC50 between 100 nM and 500 nM. “C” refers to an IC50 between 500 nM and 1000 nM. “D” refers to an IC50 between 1 μM and 2 μM. “E” refers to an IC50 between 2 μM and 10 μM. “F” refers to […]. “ND” refers to compounds wherein the IC50 was not determined.
Patch clamp experiments permit the detection of currents through the TRPC5 channel in the cell line described above. In normal whole-cell patch clamp recordings, a glass electrode is brought into contact with a single cell and a high-resistance (gigaohm) seal is established with the cell membrane. The membrane is then ruptured to achieve the whole-cell configuration, permitting control of the voltage of the cell membrane and measurement of currents flowing across the membrane using the amplifier attached to the electrode and resulting in the replacement of cytoplasm with the pipette solution. A perfusion system permits control of the extracellular solution, including the addition of blockers and activators of the current. The current can be activated by including 1.4 μM free Ca^2+ in the pipette (intracellular) solution, and 80 μM LaCl3 in the extracellular solution.
TRPC5 cells were induced 20-48 hours, removed from growth plates, and replated at low density (to attain good single-cell physical separation) on glass coverslips for measurement. In some cases, cells were grown in low density overnight on glass coverslips. Patch clamp recordings were made in the whole-cell mode with a holding potential of −40 mV. Every 5 seconds, a voltage ramp was applied from −120 to +100 mV, 400 ms in duration. Currents elicited were quantified at −80 mV and +80 mV. The internal solution consisted of 140 mM cesium aspartate, 10 mM HEDTA, 2 mM CaCl2, 2.27 mM MgCl2 and 10 mM HEPES, pH 7.2, with 1,400 nM calculated free Ca^2+. The external solution consisted of 150 mM NaCl, 4.5 mM KCl, 1 mM MgCl2, 2 mM CaCl2, 10 mM HEPES, 10 mM glucose, 1 mM EGTA, pH 7.4. Upon addition of LaCl3, TRPC5 current was induced only in TRPC5-expressing cells and not in parental HEK293 TREx cells. Removal of the LaCl3 stimulus causes most of the current to go away. Potential blockers were tested for ability to block both inward and outward currents in the continued presence of LaCl3.
IC50 of a compound of Formula I or Formula II was estimated by testing the compound at 5 μM and 500 nM. […] IC50 for a compound of Formula I or Formula II between 500 nM and 5 μM was similarly estimated.
`CCc1ccccc1Oc1nc2c(c(=O)n(C)c(=O)n2C)n1Cc1ccc(Cl)cc1` [Compound 74]: the IC50 is 100 to 500 nM. The same measure for `CCCOCCOc1nc2c(c(=O)n(C)c(=O)n2C)n1Cc1cccc(Br)c1` [Compound 99, 7-(3-bromobenzyl)-1,3-dimethyl-8-(2-propoxyethoxy)-1H-purine-2,6(3H,7H)-dione]: 100 to 500 nM; for `Cn1c(=O)c2c(nc(Oc3cccc(OC(F)(F)F)c3)n2Cc2ccc3ccccc3c2)n(C)c1=O` [Compound 191, 1,3-dimethyl-7-(naphthalen-2-ylmethyl)-8-(3-(trifluoromethoxy)phenoxy)-1H-purine-2,6(3H,7H)-dione]: < 100 nM. As for `CCCOCCCc1nc2c(c(=O)n(C)c(=O)n2C)n1Cc1cccc(Br)c1` [Compound 82, 7-(3-bromobenzyl)-1,3-dimethyl-8-(3-propoxypropyl)-1H-purine-2,6(3H,7H)-dione], the IC50 is 1000 to 2000 nM. Under `Cn1c(=O)c2c(nc(Oc3cccc(C(F)(F)F)c3)n2Cc2ccc(Cl)cc2)n(C)c1=O` [Compound 73] stands 100 to 500 nM; under `Cn1c(=O)c2c(nc(Oc3cccc(C(F)(F)F)c3)n2Cc2ccc3ccccc3c2)n(C)c1=O` [Compound 185, 1,3-dimethyl-7-(naphthalen-2-ylmethyl)-8-(3-(trifluoromethyl)phenoxy)-1H-purine-2,6(3H,7H)-dione], 2000 to 10000 nM. As for `Cn1c(=O)c2c(nc(SCc3cccnc3)n2Cc2cccc(Br)c2)n(C)c1=O` [Compound 10, 7-(3-bromobenzyl)-1,3-dimethyl-8-(pyridin-3-ylmethylthio)-1H-purine-2,6(3H,7H)-dione], the IC50 was 2000 to 10000 nM. Turning to `CN(C)Cc1cccc(Oc2nc3c(c(=O)n(C)c(=O)n3C)n2Cc2ccc(Cl)cc2)c1` [Compound 164, 7-(4-Chlorobenzyl)-8-(3-((dimethylaminol)methyl)phenoxy)-1,3-dimethyl-1H-purine-2,6(3H,7H)-dione hydrochloride], the IC50 is 2000 to 10000 nM.

Consider `COc1cccc(Cn2c(Oc3ccc(-c4ccccn4)cc3)nc3c2c(=O)n(C)c(=O)n3C)c1` [Compound 189, 7-(3-methoxybenzyl)-1,3-dimethyl-8-(4-(pyridin-2-yl)phenoxy)-1H-purine-2,6(3H,7H)-dione], for which the IC50 is 2000 to 10000 nM.

In the case of `CCOC(=O)CCCc1nc2c(c(=O)n(C)c(=O)n2C)n1Cc1cccc(Br)c1` [Compound 50, Ethyl 4-(7-(3-bromobenzyl)-1,3-dimethyl-2,6-dioxo-2,3,6,7-tetrahydro-1H-purin-8-yl)butanoate], the IC50 is 1000 to 2000 nM.

For the compound `CCc1cnc(CSc2nc3c(c(=O)n(C)c(=O)n3C)n2Cc2cccc(Br)c2)o1` [Compound 23], the IC50 is 100 to 500 nM.

With `Cn1c(=O)c2c(nc(SCc3ccncc3)n2Cc2cccc(Br)c2)n(C)c1=O` [Compound 11, 7-(3-bromobenzyl)-1,3-dimethyl-8-(pyridin-4-ylmethylthio)-1H-purine-2,6(3H,7H)-dione], the IC50 was 2000 to 10000 nM. On to `CCOCC[S+]([O-])c1nc2c(c(=O)n(C)c(=O)n2C)n1Cc1cccc(Br)c1` (stereo not drawn) [Compound 15], for which the IC50 was 2000 to 10000 nM. Take `CCOC(=O)c1cccc(Oc2nc3c(c(=O)n(C)c(=O)n3C)n2Cc2cccc(Br)c2)c1` [Compound 57, Ethyl 3-(7-(3-bromobenzyl)-1,3-dimethyl-2,6-dioxo-2,3,6,7-tetrahydro-1H-purin-8-yloxy)benzoate]: the IC50 is < 100 nM. The same measure for `Cc1cc(Cn2c(Oc3cccc(OC(F)(F)F)c3)nc3c2c(=O)n(C)c(=O)n3C)ccc1Cl` [Compound 206, 7-(4-chloro-3-methylbenzyl)-1,3-dimethyl-8-(3-(trifluoromethoxy)phenoxy)-1H-purine-2,6(3H,7H)-dione]: < 100 nM; for `CCCOCCc1nc2c(c(=O)n(C)c(=O)n2C)n1Cc1cccc(OC)c1` [Compound 91]: 2000 to 10000 nM; for `Cn1c(=O)c2c(nc(CC(=O)O)n2Cc2cccc(Br)c2)n(C)c1=O` [Compound 25, 2-(7-(3-bromobenzyl)-1,3-dimethyl-2,6-dioxo-2,3,6,7-tetrahydro-1H-purin-8-yl)acetic acid]: 2000 to 10000 nM. For `CCCOC(=O)Cc1nc2c(c(=O)n(C)c(=O)n2C)n1Cc1cccc(Br)c1` [Compound 26, Propyl-2-(7-(3-bromobenzyl)-1,3-dimethyl-2,6-dioxo-2,3,6,7-tetrahydro-1H-purin-8-yl)-acetate], the IC50 was 2000 to 10000 nM. Under `CCOCCSc1nc2c(c(=O)n(C)c(=O)n2C)n1Cc1cccc(Cl)c1` [Compound 16] stands 2000 to 10000 nM; under `CC(=O)c1cccc(Oc2nc3c(c(=O)n(C)c(=O)n3C)n2Cc2cccc(Br)c2)c1` [Compound 114, 8-(3-acetylphenoxy)-7-(3-bromobenzyl)-1,3-dimethyl-1H-purine-2,6(3H,7H)-dione], 1000 to 2000 nM. The same measure for `Cc1nc2c(c(=O)n(C)c(=O)n2C)n1Cc1cccc(Br)c1` [Compound 24, 7-(3-bromobenzyl)-1,3,8-trimethyl-1H-purine-2,6(3H,7H)-dione]: 2000 to 10000 nM; for `CCOC(=O)C(C)Cc1nc2c(c(=O)n(C)c(=O)n2C)n1Cc1cccc(Br)c1` (stereo not drawn) [Compound 87]: 500 to 1000 nM. Under `CCc1coc(CSc2nc3c(c(=O)n(C)c(=O)n3C)n2Cc2cccc(F)c2)n1` [Compound 147, 8-((4-ethyloxazol-2-yl)methylthio)-7-(3-fluorobenzyl)-1,3-dimethyl-1H-purine-2,6(3H,7H)-dione] stands 100 to 500 nM; under `CCCOCCc1nc2c(c(=O)n(C)c(=O)n2C)n1Cc1ccc(Cl)cc1` [Compound 93], 500 to 1000 nM; under `Cn1c(=O)c2c(nc(Oc3cccc(OC(F)(F)F)c3)n2Cc2ccc(Cl)c(F)c2)n(C)c1=O` [Compound 198, 7-(4-chloro-3-fluorobenzyl)-1,3-dimethyl-8-(3-(trifluoromethoxy)phenoxy)-1H-purine-2,6(3H,7H)-dione], < 100 nM. In the case of `CCOCc1cccc(Oc2nc3c(c(=O)n(C)c(=O)n3C)n2Cc2cccc(Br)c2)c1` [Compound 126, 7-(3-bromobenzyl)-8-(3-(ethoxymethyl)phenoxy)-1,3-dimethyl-1H-purine-2,6(3H,7H)-dione], the IC50 was 100 to 500 nM. Under `CN(C)Cc1cccc(Cn2c(Oc3cccc(OC(F)(F)F)c3)nc3c2c(=O)n(C)c(=O)n3C)c1` [Compound 183] stands 2000 to 10000 nM.
